Data from patent publication US20190282600A1, “COMBINATION THERAPIES TARGETING TERT DEPENDENCY FOR CANCER THERAPY” (The Wistar Institute of Anatomy and Biology, priority 2018, published 2019).

Experiments:
[1] = test system: detoxifying enzymes SOD2, GPX1 and UCP2; assay: mRNA levels of antioxidant enzymes by qRT-PCR; type: cell-based, Human; conditions: NRAS mutant melanoma cells, 1 μM 6-thio-dG for 7 days
Protocol: FIGS. 3a to 3g provides graphs showing that telomere dysfunction enhances oxidative stress leading to upregulation of an antioxidant program. […] Mitochondrial superoxide production was measured by MitoSox Red fluorescence (FIGS. 3c, and 3d) and expressed as fluorescence relative to vector or DMSO controls. […] FIG. 3f provides a bar graph showing that SOD2 was silenced using shRNA. Transduced M93-047 cells were treated with DMSO or 1 μM of 6-thio-dG and cell death was assessed by Annexin V/PI straining. As presented in FIG. 3g, M93-047 cells were transduced with a SOD2 lentiviral construct or empty vector control (pLX304). Transduced cells were treated with increasing doses (1, 2.5 and 5 μM) of 6-thio-dG for 7 days and cell death was assessed. Data represent average from three independent experiments ±SEM. *p<0.05; **p<0.01; ***p<0.005 in unpaired Student's t-test.
Total RNA (1 μg) was reverse transcribed using Maxima First-Strand cDNA synthesis kit (Thermo Scientific, Waltham, Mass.). Fast SYBR Green Master Mix (Applied Biosystems, Waltham, Mass.) was used with 100 ng cDNA template and 250 nM primers for the evaluation of target gene expression. Amplification was performed in triplicate using ABI PRISM 7500 Fast RT PCR System (Applied Biosystems, Waltham, Mass.) and expression of mRNA was assessed using the […].

[2] = test system: NRAS-WT/BRAF-WT melanoma cells; assay: Cell death by Annexin V/PI flow cytometry; type: cell-based, Human; conditions: 1 μM 6-thio-dG, 5 μM Gam, single agents or in combination
Protocol: (§1) FIGS. 5a to 5e provide bar graphs showing that combination treatment with 6-Thio-dG and Gamitrinib (Gam) triggers death selectively in NRAS mutant tumor cells. NRAS-WT/BRAF-WT melanoma cells (FIG. 5a), NRAS-WT/BRAF-mut melanoma cells (FIG. 5b), NRAS mutant neuroblastoma cells (FIG. 5c), NRAS-WT/KRAS-mutant colon cancer cells (FIG. 5d), and NRAS-WT/KRAS-mutant lung cancer cells were treated with 1 μM 6-thio-dG for 5 days (FIG. 5e). At day 5, culture medium was replaced and cells treated with 1 μM 6-thio-dG plus 5 μM Gam for two more days. Cells were stained with Annexin V and PI and percent cell death was determined by FACS. Data represent average of three independent experiments +/−SEM; p values were calculated using un-paired Student's t-test; *p<0.05; **p<0.001.
(§2) Cells were seeded in 96-well plates and treated with drugs. After 6 days, cell viability was assessed following 6h incubation with […] Alamar Blue (ThermoFisherScientific, Philadelphia, Pa.) by measuring fluorescence using an EnVision Xcite Multilabel plate reader (Perkin Elmer, Waltham, Mass.). Cell death was determined by flow cytometry using PSVue-643 (Molecular Targeting Technologies) or Annexin V (640919, Biolegend, San Diego, Calif.) and Propidium Iodide (Sigma) staining. Samples were analyzed using a BD LSRII flow cytometer (BD Biosciences, San Jose, Calif.).

[3] = test system: KRAS mutant HCT116 cells; assay: Cell death by Annexin V/PI flow cytometry; type: cell-based; conditions: 1 μM 6-thio-dG, 5 μM Gam
Protocol: as §1, §2

[4] = test system: KRAS mutant A549 cells; assay: Cell death by Annexin V/PI flow cytometry; type: cell-based; conditions: 1 μM 6-thio-dG, 5 μM Gam
Protocol: as §1, §2

[5] = test system: NRAS mutant SKNAS neuroblastoma cells; assay: Cell death by Annexin V/PI flow cytometry; type: cell-based; conditions: 1 μM 6-thio-dG, 5 μM Gam, single agents or in combination
Protocol: as §1, §2

[6] = test system: NRAS mutant melanoma cells; assay: Cell viability, Alamar Blue assay; type: cell-based, Human
Protocol: (§3) FIGS. 2a to 2c show NRAS^mut melanoma cells (FIG. 2a), BRAF-V600E/NRAS mutant cells derived from melanoma patients resistant to BRAF/MEK inhibitors (FIG. 2b), or non-transformed melanocytes and fibroblasts (FIG. 2c) were treated with 6-thio-dG for 7 days. Cell viability was measured by Alamar Blue assay and calculated relative to DMSO-treated cells. […] Cell death was assessed by PSVUe staining. Percent of apoptotic cells is shown. […] Mean TRF length expressed as kilobase pairs is indicated at the bottom. […] FIG. 2g provides a bar graph showing that DNA damage was assessed by γH2AX staining. Data represent average from three independent experiments ±SEM. *p<0.05; **p<0.01; ***p<0.005 in unpaired Student's t-test. […] Tumor volume was measured and average tumor volume (n=4) ±SEM was plotted vs. time.
as §2

[7] = test system: NRAS mutant melanoma cells; assay: Global DNA damage, γH2AX staining by flow cytometry; type: cell-based, Human; conditions: 1 μM 6-thio-dG for 7 days
Protocol: FIGS. 2a to 2c show NRAS^mut melanoma cells (FIG. 2a), BRAF-V600E/NRAS mutant cells derived from melanoma patients resistant to BRAF/MEK inhibitors (FIG. 2b), or non-transformed melanocytes and fibroblasts (FIG. 2c) were treated with 6-thio-dG for 7 days. Cell viability was measured by Alamar Blue assay and calculated relative to DMSO-treated cells. […] Cell death was assessed by PSVUe staining. Percent of apoptotic cells is shown. […] Mean TRF length expressed as kilobase pairs is indicated at the bottom. […] FIG. 2g provides a bar graph showing that DNA damage was assessed by γH2AX staining. Data represent average from three independent experiments ±SEM. *p<0.05; **p<0.01; ***p<0.005 in unpaired Student's t-test. As presented in FIG. 2h, mice bearing established WM3000 or M93-047 NRAS^mut tumors were treated with vehicle control or 6-thio-dG (2.5 mg/kg i.p; q.d). Tumor volume was measured and average tumor volume (n=4) ±SEM was plotted vs. time.
For assessment of global DNA damage cells were fixed and permeabilized with BD CytoFix/Perm reagent following the manufacturer's instructions and incubated with γH2AX antibody (Cell Signaling Technology, Danvers, Mass.) for 1 h at room temperature followed by 1 h incubation with Alexa-647 anti-Rabbit secondary antibody. Mean fluorescence staining was quantified by flow cytometry. […]

[8] = test system: NRAS mutant melanoma cells; assay: Reactive oxygen species by flow cytometry (H2DCFDA, MitoSox Red); type: cell-based, Human; conditions: 1 μM 6-thio-dG for 7 days
Protocol: as §3, with “staining.” for “staining. Data represent average from three independent experiments ±SEM. *p<0.05; **p<0.01; ***p<0.005 in unpaired Student's t-test.”
FIGS. 3a to 3g provides graphs showing that telomere dysfunction enhances oxidative stress leading to upregulation of an antioxidant program. […] Mitochondrial superoxide production was measured by MitoSox Red fluorescence (FIGS. 3c, and 3d) and expressed as fluorescence relative to vector or DMSO controls. […] Transduced M93-047 cells were treated with DMSO or 1 μM of 6-thio-dG and cell death was assessed by Annexin V/PI straining. […] Transduced cells were treated with increasing doses (1, 2.5 and 5 μM) of 6-thio-dG for 7 days and cell death was assessed. […]
General or mitochondrial specific ROS were measured by flow cytometry H2DCFDA or MitoSoxRed (Invitrogen, Waltham, Mass.) following manufacturer's specifications.

Question: With `Nc1nc2c(ncn2[C@H]2C[C@H](O)[C@@H](CO)O2)c(=S)[nH]1` [6-thio-dG, 6-thio-2′-deoxyguanosine] as the molecule, how does the “GPX1 mRNA levels” value [1] read?
Answer: upregulation

Question: What about the “SOD2 mRNA levels” value [1] of the same molecule?
Answer: upregulation

Question: What about the “UCP2 mRNA levels” value [1] of the same molecule?
Answer: upregulation

Question: What about the cell death [2] of the same molecule?
Answer: did not induce cell death

Question: What about the cell death [3] of the same molecule?
Answer: did not induce substantial death

Question: And the cell death [4]?
Answer: did not induce substantial death

Question: And the cell death [5]?
Answer: triggered significant death

Question: What about the cell viability ([6]; 6-thio-dG for 7 days, relative to DMSO) of the same molecule?
Answer: impaired the viability

Question: And the cell viability ([6]; cells driven by secondary mutations in NRAS from patients with acquired resistance to BRAF and MEK inhibitors, 7 days)?
Answer: impaired the viability

Question: What about the γH2AX [7] of the same molecule?
Answer: increased levels

Question: And the “ROS levels (H2DCFDA)” value [8]?
Answer: increased levels

Question: What about the “mitochondrial ROS levels (MitoSox Red)” value [8] of the same molecule?
Answer: increased mitochondrial ROS levels
